Patent US20050037033A1, “Microbicidal compositions and methods and use” (priority 2003, published 2005)
Like-named read-outs stand apart in the source and are kept apart here.

Assays:
[1] = system: N. gonorrheae, strain ms11a; assay: Neisseria gonorrhea inhibition assay; assay type: cell-based; conditions: gonococcal agar, overnight, colonies counted
Procedure: Compound was incorporated into gonococcal agar, the agar/agent mixture was poured on culture dishes and inoculated with N. gonorrheae, strain ms11a (10 μl of each dilution: 10^−1 to 10^−5 of a starting 0.5 Mcfarland solution which is equal to 1.5×10^8 colony forming units (cfu)/ml). The plates were incubated overnight (20-22 hours) and the colonies counted.

[2] = system: HIV; assay: Cell-free inactivation assay; assay type: cell-based; conditions: virus incubated with product for 2 minutes
Procedure: Cell-free inactivation assay: Virus was incubated with product for 2 minutes, a series of 10-fold dilutions were made, each dilution was added to the host cells and viral infectivity was measured.

[3] = system: HSV-2; assay: HSV-2 virucidal assay; assay type: cell-based; conditions: Human alphaherpesvirus 2, 1 h, at 400 μg/ml (highest concentration tested); 60 min at 37° C.
Procedure: The virucidal activities of ciclopiroxolamine against HSV-2 were tested by mixing various concentrations of the test compound with 2×10^5 PFU of HSV-2, respectively, and incubating at 37° C. for 60 min. The culture medium was included as a […] control. At the end of incubation, the mixtures were diluted 1 in 1000 with culture medium. The infectivity of treated virus was determined by a standard viral plaque assay. Briefly, confluent Vero cells were washed with PBS and subsequently infected with 1 ml of treated mixture at 37° C. for 1 h. After viral inoculum was removed, the infected cells were washed with PBS and overlaid with 0.5% methylcellulose in culture medium. The infected cells were incubated at 37° C. for 2 days to allow the plaques to develop.

[4] = system: Peptrostrep. magnus; assay: Anaerobe inhibition assay; assay type: cell-based; conditions: 2 strains, read-out: Minimum Inhibitory Concentrations (MICs)
[5] = system: HIV-1 infected SupTi cells (strain IIIB); assay: Cell to cell transmission assay (CTC); assay type: cell-based; conditions: Human immunodeficiency virus 1, IIIB, Series 2, P4-R5 cells, 2 hour incubation, read-out: 50% Effective Concentrations (IC50)
Procedure: Cell to cell transmission assay (CTC): HIV-1 infected SupTi cells (strain IIIB), killed prior to exposure, were incubated with compound and P4-R5 cells for 2 hours at 37° C., followed by washing and 48 hour incubation.

[6] = system: Mobiluncus curtisii; assay: Anaerobe inhibition assay; assay type: cell-based; conditions: 2 strains, read-out: Minimum Inhibitory Concentrations (MICs)
[7] = system: Staph. aureus; assay: Aerobe inhibition assay; assay type: cell-based, Staphylococcus aureus; conditions: 3 strains
Procedure: (§1) The aerobic organisms were suspended into saline to the turbidity of the 0.5 McFarland standard, diluted 1:10, pipetted into the wells of the Steers replicator head, and stamped onto the Mueller Hinton agar plates containing the serial dilutions of the antimicrobials.
(§2) The anaerobes were incubated in an anaerobic chamber at 37° C. for 2 days; aerobes were incubated in ambient air at 36° C. for 20h.

[8] = system: C. glabrata; assay: Aerobe inhibition assay; assay type: cell-based, Candida glabrata; conditions: Nakaseomyces glabratus; 3 strains; read-out: Minimum Inhibitory Concentrations (MICs)
Procedure: as §1, §2

[9] = system: Porphyromonas levii; assay: Anaerobe inhibition assay; assay type: cell-based; conditions: 2 strains, read-out: Minimum Inhibitory Concentrations (MICs)
[10] = system: Lactobacilli (L. jensii, L. gasseri, L. acidophilus, L. salivarius); assay: Lactobacillus Steers time-kill (TK) assay, all strains; assay type: cell-based
[11] = system: HIV-1 strain III-B (X4 strain); assay: Viral entry/binding inhibition assay (VBI), strain IIIB; assay type: cell-based; conditions: Human immunodeficiency virus 1, Series 2, P4-R5 cells, 2 hour incubation, read-out: 50% Effective Concentrations (IC50)
Procedure: Viral entry inhibition assay (VBI): Cell-free HIV-1 (strain III-B: X4 strain; or strain BaL: R5 strain) was incubated with compound and P4-R5 cells for 2 hours at 37° C., followed by washing and 48 hour incubation.

[12] = system: Peptostrep tetradius; assay: Anaerobe inhibition assay; assay type: cell-based; conditions: 1 strain, read-out: Minimum Inhibitory Concentrations (MICs)
[13] = system: C. trachomatis Serovar E elementary bodies; assay: Chlamydia trachomatis inhibition assay; assay type: cell-based
Procedure: C. trachomatis Serovar E elementary bodies ([…]; 10^4 IFU) were incubated for 4 hours on ice with compound, the mixture was inoculated into HeLa cell monolayers, and incubated for 1 hour. The inoculum was removed, the medium changed and the cells incubated overnight (20-22 hours). The cells were removed, fixed, permeabilized, and the infected cells detected by fluorescently tagged antibody and flow cytometry.

[14] = system: Mobiluncus mulieris; assay: Anaerobe inhibition assay; assay type: cell-based; conditions: 2 strains, read-out: Minimum Inhibitory Concentrations (MICs)
[15] = system: Peptostrep anaerobius; assay: Anaerobe inhibition assay; assay type: cell-based; conditions: 1 strain, read-out: Minimum Inhibitory Concentrations (MICs)
[16] = system: Prevotella disiens; assay: Anaerobe inhibition assay; assay type: cell-based; conditions: 2 strains, read-out: Minimum Inhibitory Concentrations (MICs)
[17] = Cytotoxicity assay; assay type: cell-based
Procedure: The cells listed in Table 4 were incubated for the indicated period of time with different concentrations of ciclopiroxolamine and cell viability was measured by the 3-(4,5-dimethylthiazol-2-yl)-2,5-diphenyltetrazolium bromide (MTT) assay or by treatment with propidium iodide and fluorescence. Percent viability was calculated with respect to the viability of mock-exposed cells (cells incubated without compounds).
In the MTT assay, the effect of each agent on cell viability was determined using an assay in which dehydrogenases in viable cells cleave the compound 3-(4,5-dimethylthiazol-2-yl)-2,5-diphenyltetrazolium bromide (MTT), yielding a purple product (formazan) which can be measured spectrophotometrically (Pauwels et al., 1988). Cells were seeded into 96 well plates at a density of 3×10^4 cells/well 24 hours prior to introduction of the microbicides. Agents were diluted in as previously indicated. Agents were added to triplicate wells in half-log serial dilutions. Cells were incubated in the absence or presence of each agent at 37° C. under 5% CO2 and 90% humidity for 2 hours. At the conclusion of each experiment, cells were washed, replenished with fresh medium and incubated with MTT (250 μl/well) for 2 hours at 37° C. Following removal of the medium (by aspiration), intracellular formazan crystals were solubilized with 10% Triton X-100 in acidified isopropanol. The resulting solutions were assayed spectrophotometrically at 570 nm and corrected for non-specific absorption at 690 nm. In this assay, measured absorbance is proportional to the viable cell number, and inversely proportional to the degree of cytotoxicity.

## Cc1cc(C2CCCCC2)n(O)c(=O)c1.NCCO [CO, 6-Cyclohexyl-1-hydroxy-4-methyl-2-(1H)-pyridone ethanolamine salt]
[1]
  IC50: 1 µg/mL
[2]; At 0.09%
  log reduction (viral infectivity): At 0.09%: ≧2.0 log
[2]; At 0.3%
  log reduction (viral infectivity): At 0.3%: ≧2.7 log
[3]
  inhibition at 400 µg/mL: 40%
[4]
  MIC: 40 µg/mL
[5]
  IC50: 97.4 µg/mL
[6]
  MIC: 40 µg/mL
[7]
  Minimum Inhibitory Concentrations (MICs): 80 µg/mL
[7]; Staphylococcus aureus, read-out: Minimum Inhibitory Concentrations (MICs)
  MIC: 40 µg/mL
[8]
  MIC: 20 µg/mL
[9]
  MIC: 40 µg/mL
[10]
  effect on lactobacilli (summary in words): inhibits the growth of lactobacilli but does not kill them
[11]
  IC50: 45.5 µg/mL
[12]
  MIC: 40 µg/mL
[13]
  IC50: 1600 µg/mL
[13]; HeLa cell monolayers, flow cytometry
  IC50: 1630 µg/mL
[14]
  MIC: 40 µg/mL
[15]
  MIC: 40 µg/mL
[16]
  MIC: 40 µg/mL
[17]; African green monkey, Vero cells, Series 4, 2 hour incubation
  CC50 at 2 h: > 200 µg/mL
[17]; human, P4-R5 cells, Series 2, P4-R5, 2 hour incubation, 100 μg/ml highest conc tested
  CC50 at 2 h: > 100 µg/mL
[17]; human, VK-2/E6E7 cells (vaginal epithelium cell line), Series 2, VK-2/E6E7, 2 hour incubation
  CC50 at 2 h: 100 µg/mL
